This passage reports IC50 results from patent US10472358B2, “1H-pyrrolo[2,3-c]pyridin-7(6H)-ones and pyrazolo[3,4-c]pyridin-7(6H)-ones as inhibitors of BET proteins” (Incyte Corporation, priority 2014, dated 2019).

The structures appear in SMILES notation. Where only a bound is given, the exact number is not on record here.

The test system of the test is KMS.12.BM cells. Nature of the test: KMS.12.BM cell viability assay (Cell Titer-GLO, ATP quantitation). The note with it: KMS-12-BM, 72 h; human myeloma cells, 3 days, concentration required for 50% cell death. It is filed as cell-based. Here is the method:
Example B1: KMS.12.BM Cell Viability Assay
KMS.12.BM cell line (human myeloma) was purchased from JCRB (Osaka, Japan) and maintained in RPMI with 10% FBS culture medium. To measure the cytotoxic activity of the compounds through ATP quantitation, the KMS.12.BM cells are plated in the RPMI culture medium at 5000 cells/well/per 100 μL into a 96-well polystyrene clear black tissue culture plate (Greiner-bio-one through VWR, NJ), in the presence or absence of a concentration range of test compounds. After 3 days, […] Cell Titer-GLO Luminescent (Promega, Madison, Wis.) cell culture agent is added to each well for 10 minutes at room temperature to stabilize the luminescent signal. This determines the number of viable cells in culture based on quantitation of the ATP present, which signals the presence of metabolically active cells. Luminescence is measured with the Top Count 384 (Packard Bioscience through Perkin Elmer, Boston, Mass.). Compound inhibition is determined relative to cells cultured with no drug and the IC50 is reported as the compound concentration required for 50% cell death.

In turn, `CC(C)C1Oc2c(cc(S(=O)(=O)C(C)C)cc2-c2cn(C)c(=O)c3[nH]ccc23)NC1=O` (stereo not drawn) [Example 52, 2-isopropyl-6-(isopropylsulfonyl)-8-(6-methyl-7-oxo-6,7-dihydro-1H-pyrrolo[2,3-c]pyridin-4-yl)-2H-1,4-benzoxazin-3(4H)-one] showed an IC50 not above 1000 nM.
In the case of `CC(C)C1Oc2c(-c3cn(C)c(=O)c4[nH]ccc34)cc(S(C)(=O)=O)cc2N(CC2CC2)C1=O` (stereo not drawn) [Example 53, 4-(cyclopropylmethyl)-2-isopropyl-8-(6-methyl-7-oxo-7-dihydro-1H-pyrrolo[2,3-c]pyridin-4-yl)-6-(methylsulfonyl)-2H-1,4-benzoxazin-3(4H)-one] it was not above 1000 nM; in that of `CCN1C(=O)C(C(C)C)Oc2c(-c3cn(C)c(=O)c4[nH]ccc34)cc(S(C)(=O)=O)cc21` (stereo not drawn) [Example 54, 4-ethyl-2-isopropyl-8-(6-methyl-7-oxo-6,7-dihydro-1H-pyrrolo[2,3-c]pyridin-4-yl)-6-(methylsulfonyl)-2H-1,4-benzoxazin-3(4H)-one], not above 1000 nM.
For the molecule `CCS(=O)(=O)c1cc(-c2cn(C)c(=O)c3[nH]ccc23)c2c(c1)N(C)C(=O)C(C(C)C)O2` (stereo not drawn) [Example 55, 6-(ethylsulfonyl)-2-isopropyl-4-methyl-8-(6-methyl-7-oxo-6,7-dihydro-1H-pyrrolo[2,3-c]pyridin-4-yl)-2H-1,4-benzoxazin-3(4H)-one], the IC50 is not above 1000 nM.
`CC(C)C1Oc2c(-c3cn(C)c(=O)c4[nH]ccc34)cc(S(=O)(=O)C(C)C)cc2N(C)C1=O` (stereo not drawn) [Example 56, 2-isopropyl-6-(isopropylsulfonyl)-4-methyl-8-(6-methyl-7-oxo-6,7-dihydro-1H-pyrrolo[2,3-c]pyridin-4-yl)-2H-1,4-benzoxazin-3(4H)-one] came in with a half-maximal inhibitory concentration (IC50) not above 1000 nM.
In the case of `Cn1cc(-c2cc(S(C)(=O)=O)cc3c2OC2(CC2)C(=O)N3)c2cc[nH]c2c1=O` [Example 57, 8-(6-methyl-7-oxo-6,7-dihydro-1H-pyrrolo[2,3-c]pyridin-4-yl)-6-(methylsulfonyl)spiro[1,4-benzoxazine-2,1′-cyclopropan]-3(4H)-one] it was not above 1000 nM.
The same measure for `Cn1cc(-c2cc(S(C)(=O)=O)cc3c2NC(C)(C)C(=O)N3)c2cc[nH]c2c1=O` [Example 58, 3,3-dimethyl-5-(6-methyl-7-oxo-6,7-dihydro-1H-pyrrolo[2,3-c]pyridin-4-yl)-7-(methylsulfonyl)-3,4-dihydroquinoxalin-2(1H)-one]: not above 1000 nM; for `Cn1cc(-c2cc(S(C)(=O)=O)cc3c2NC2(CCCC2)C(=O)N3)c2cc[nH]c2c1=O` [Example 59, 8′-(6-methyl-7-oxo-6,7-dihydro-1H-pyrrolo[2,3-c]pyridin-4-yl)-6′-(methylsulfonyl)-1′,4′-dihydro-3′H-spiro[cyclopentane-1,2′-quinoxalin]-3′-one]: not above 1000 nM.
Turning to `CC(C)[C@@H]1Nc2c(cc(S(C)(=O)=O)cc2-c2cn(C)c(=O)c3[nH]ccc23)NC1=O` [Example 60, (3S)-3-isopropyl-5-(6-methyl-7-oxo-6,7-dihydro-1H-pyrrolo[2,3-c]pyridin-4-yl)-7-(methylsulfonyl)-3,4-dihydroquinoxalin-2(1H)-one], the concentration for half-maximal inhibition (IC50) was not above 1000 nM.
In the case of `CC(C)[C@H]1Nc2c(cc(S(C)(=O)=O)cc2-c2cn(C)c(=O)c3[nH]ccc23)NC1=O` [Example 61, (3R)-3-isopropyl-5-(6-methyl-7-oxo-6,7-dihydro-1H-pyrrolo[2,3-c]pyridin-4-yl)-7-(methylsulfonyl)-3,4-dihydroquinoxalin-2(1H)-one] it was not above 1000 nM.
The same measure for `Cn1cc(-c2cc(S(C)(=O)=O)cc3c2NC2(CCC2)C(=O)N3)c2cc[nH]c2c1=O` [Example 62, 8′-(6-methyl-7-oxo-6,7-dihydro-1H-pyrrolo[2,3-c]pyridin-4-yl)-6′-(methylsulfonyl)-1′,4′-dihydro-3′H-spiro[cyclobutane-1,2′-quinoxalin]-3′-one]: not above 1000 nM; for `CN1C(=O)C2(CC2)Oc2c(-c3cn(C)c(=O)c4[nH]ccc34)cc(S(C)(=O)=O)cc21` [Example 63, 4-methyl-8-(6-methyl-7-oxo-6,7-dihydro-1H-pyrrolo[2,3-c]pyridin-4-yl)-6-(methylsulfonyl)spiro[1,4-benzoxazine-2,1′-cyclopropan]-3(4H)-one]: not above 1000 nM; for `Cn1cc(-c2cc(S(C)(=O)=O)cc3c2NC2(CCCCC2)C(=O)N3)c2cc[nH]c2c1=O` [Example 64, 8′-(6-methyl-7-oxo-6,7-dihydro-1H-pyrrolo[2,3-c]pyridin-4-yl)-6′-(methylsulfonyl)-1′,4′-dihydro-3′H-spiro[cyclohexane-1,2′-quinoxalin]-3′-one]: not above 1000 nM.
Consider `Cn1cc(-c2cc(S(C)(=O)=O)cc3c2OC2(CC2)C(=O)N3)c2cn[nH]c2c1=O` [Example 65, 8-(6-methyl-7-oxo-6,7-dihydro-1H-pyrazolo[3,4-c]pyridin-4-yl)-6-(methylsulfonyl)spiro[1,4-benzoxazine-2,1′-cyclopropan]-3(4H)-one], for which the IC50 is not above 1000 nM.
In the case of `CN1C(=O)C2(CC2)Oc2c(-c3cn(C)c(=O)c4[nH]ncc34)cc(S(C)(=O)=O)cc21` [Example 66, 4-methyl-8-(6-methyl-7-oxo-6,7-dihydro-1H-pyrazolo[3,4-c]pyridin-4-yl)-6-(methylsulfonyl)spiro[1,4-benzoxazine-2,1′-cyclopropan]-3(4H)-one] it was not above 1000 nM; in that of `CC(C)C1Oc2c(cc(S(=O)(=O)N(C)C)cc2-c2cn(C)c(=O)c3[nH]ccc23)NC1=O` (stereo not drawn) [Example 67, 2-isopropyl-N,N-dimethyl-8-(6-methyl-7-oxo-6,7-dihydro-1H-pyrrolo[2,3-c]pyridin-4-yl)-3-oxo-3,4-dihydro-2H-1,4-benzoxazine-6-sulfonamide], not above 1000 nM; in that of `CNS(=O)(=O)c1cc2c(c(-c3cn(C)c(=O)c4[nH]ccc34)c1)OC(C(C)C)C(=O)N2` (stereo not drawn) [Example 68, 2-isopropyl-N-methyl-8-(6-methyl-7-oxo-6,7-dihydro-1H-pyrrolo[2,3-c]pyridin-4-yl)-3-oxo-3,4-dihydro-2H-1,4-benzoxazine-6-sulfonamide], not above 1000 nM.
In the case of `CN1C(=O)C(C)(C)Oc2c(-c3cn(C)c(=O)c4[nH]ccc34)cc(S(=O)(=O)N(C)C)cc21` [Example 69, N,N,2,2,4-pentamethyl-8-(6-methyl-7-oxo-6,7-dihydro-1H-pyrrolo[2,3-c]pyridin-4-yl)-3-oxo-3,4-dihydro-2H-1,4-benzoxazine-6-sulfonamide] it was not above 1000 nM.
Turning to `CN(C)S(=O)(=O)c1cc2c(c(-c3cn(C)c(=O)c4[nH]ccc34)c1)OC(C)(C)C(=O)N2` [Example 70, N,N,2,2-tetramethyl-8-(6-methyl-7-oxo-6,7-dihydro-1H-pyrrolo[2,3-c]pyridin-4-yl)-3-oxo-3,4-dihydro-2H-1,4-benzoxazine-6-sulfonamide], the concentration for half-maximal inhibition (IC50) was not above 1000 nM.
In the case of `CC(C)C1Oc2c(-c3cn(C)c(=O)c4[nH]ccc34)cc(S(=O)(=O)N(C)C)cc2N(C)C1=O` (stereo not drawn) [Example 71, 2-isopropyl-N,N,4-trimethyl-8-(6-methyl-7-oxo-6,7-dihydro-1H-pyrrolo[2,3-c]pyridin-4-yl)-3-oxo-3,4-dihydro-2H-1,4-benzoxazine-6-sulfonamide] it was not above 1000 nM.
`Cn1cc(-c2cc(S(=O)(=O)N3CCCCC3)cc3c2OC(C)(C)C(=O)N3)c2cc[nH]c2c1=O` [Example 72, 2,2-dimethyl-8-(6-methyl-7-oxo-6,7-dihydro-1H-pyrrolo[2,3-c]pyridin-4-yl)-6-(piperidin-1-ylsulfonyl)-2H-1,4-benzoxazin-3(4H)-one] yielded an IC50 not above 1000 nM.
The same measure for `CN1C(=O)C(C)(C)Oc2c(-c3cn(C)c(=O)c4[nH]ccc34)cc(S(=O)(=O)N3CCCCC3)cc21` [Example 73, 2,2,4-trimethyl-8-(6-methyl-7-oxo-6,7-dihydro-1H-pyrrolo[2,3-c]pyridin-4-yl)-6-(piperidin-1-ylsulfonyl)-2H-1,4-benzoxazin-3(4H)-one]: not above 1000 nM; for `CC(C)NS(=O)(=O)c1cc2c(c(-c3cn(C)c(=O)c4[nH]ccc34)c1)OC(C)(C)C(=O)N2` [Example 74, N-isopropyl-2,2-dimethyl-8-(6-methyl-7-oxo-6,7-dihydro-1H-pyrrolo[2,3-c]pyridin-4-yl)-3-oxo-3,4-dihydro-2H-1,4-benzoxazine-6-sulfonamide]: not above 1000 nM; for `CN1C(=O)C(C)(C)Oc2c(-c3cn(C)c(=O)c4[nH]ccc34)cc(S(C)(=O)=O)cc21` [Example 75, 2,2,4-trimethyl-8-(6-methyl-7-oxo-6,7-dihydro-1H-pyrrolo[2,3-c]pyridin-4-yl)-6-(methylsulfonyl)-2H-1,4-benzoxazin-3(4H)-one]: not above 1000 nM.
Molecule `CCS(=O)(=O)c1cc(-c2cn(C)c(=O)c3[nH]ccc23)c2c(c1)N(C)C(=O)C(C)(C)O2` [Example 76, 6-(ethylsulfonyl)-2,2,4-trimethyl-8-(6-methyl-7-oxo-6,7-dihydro-1H-pyrrolo[2,3-c]pyridin-4-yl)-2H-1,4-benzoxazin-3(4H)-one] displayed an IC50 not above 1000 nM.
The same measure for `CC(C)S(=O)(=O)c1cc(-c2cn(C)c(=O)c3[nH]ccc23)c2c(c1)N(C)C(=O)C(C)(C)O2` [Example 77, 6-(isopropylsulfonyl)-2,2,4-trimethyl-8-(6-methyl-7-oxo-6,7-dihydro-1H-pyrrolo[2,3-c]pyridin-4-yl)-2H-1,4-benzoxazin-3(4H)-one]: not above 1000 nM; for `CCS(=O)(=O)c1cc2c(c(-c3cn(C)c(=O)c4[nH]ccc34)c1)OC(C)(C)C(=O)N2` [Example 78, 6-(ethylsulfonyl)-2,2-dimethyl-8-(6-methyl-7-oxo-6,7-dihydro-1H-pyrrolo[2,3-c]pyridin-4-yl)-2H-1,4-benzoxazin-3(4H)-one]: not above 1000 nM.
